Legend:
[1] = test system: rabbit gastric lipase (RGL) followed by porcine pancreatic lipase (PPL); experiment: Sequential in vitro digestion in simulated gastric fluid (SGF) followed by simulated intestinal fluid (SIF), pH-stat
Protocol: 10 wt % oil in water emulsions stabilised by 0.3 wt % polyoxyethylene sorbitan mono-oleate (Tween® 80) were prepared by mixing the Tween 80 into the oil phase at 40° C., then mixing with the water phase using a magnetic stirrer. An emulsion was then created using a Hielscher UP 400S ultrasonic probe homogeniser equipped with a 5 mm diameter rod-like probe by applying 100% amplitude at 100% cycle for 2 minutes whilst the sample was cooled using ice water.
The lipid emulsion (2 mL) containing 200 mg of fat was subjected to gastrointestinal in vitro lipolysis. The digestions were conducted in thermostated glass vessels (37° C.) in a pH-STAT setup controlled by a TIM 856 bi-burette pH-STAT (Radiometer Analytical, France). For gastric digestion, the sample was incubated for 90 minutes with 8.5 mL of simulated gastric fluid (SGF), which consisted of 150 mM NaCl, 450 U/mL pepsin, 18 U/mL rabbit gastric lipase at 37° C. and a pH of 5.5.
The intestinal digestion step was performed in the pH stat where the pH was kept constant at 6.8 by addition of NaOH (0.05 M). A bile salt mixture (bile salts prepared with tris buffer, 5 mM tris, 150 mM NaCl) and calcium solution (20 mM Ca, 176 5 mM tris, 150 mM NaCl) were added to the SGF-sample mixture. This mixture was transferred to the pH-stat, where the pH was adjusted to approximately 6.78. The intestinal digestion step starts when the temperature reaches 37±0.5° C. The pH was adjusted to pH 6.8 and after incubation of two minutes at this pH and temperature, a pancreatin solution (5 mM tris, 150 mM NaCl at pH 6.8) was added. The final composition of the intestinal fluid was 10 mM CaCl2, 12 mM mixed bile salts, 0.75 mM phospholipid, 150 mM NaCl and 4 mM tris(hydroxymethyl)aminomethane buffer. The intestinal digestion step was carried out for 3 hours in a titration manager from Radiometer. During the intestinal phase of digestion, the kinetics of digestion were followed using a pH-stat (TIM856, Radiometer) technique and expressed as titratable acid (rather than fatty acid) that was calculated by the equation: […]

[2] = test system: porcine pancreatic lipase (PPL); details: pig, 3 h, pH 11.5
Text: Because many fatty acids are only partially ionised at pH 6.8, direct titration gives only partial picture of the extent of lipid digestion, instead back titration to pH 11.5 or GC-FAME analysis is required to estimate the full extent of digestion.

Q: CCCC(=O)OCC(COC(=O)CCC)OC(=O)CCC [tributyrin] was tested. Which “Initial lipolysis rate in SIF compartment” value ([1]; SGF-SIF sequential digestion (90 minutes SGF pH 5.5, then SIF pH 6.8)) did it give?
A: 44.1 ± 8.8 µmol/min

Q: And the “Lipolysis by gastric lipase” value ([1]; indicated by decreased total fatty acid release during SIF after RGL pre-exposure)?
A: ~60%

Q: And the “Hydrolysis in the stomach (gastric lipolysis), in words” value ([1]; simulated gastric compartment)?
A: extensive hydrolysis in the stomach

Q: What about the Extent of digestion [2] of the same compound?
A: 101.5±0.9%

Reference: patent US20220195332A1, “DIETARY BUTYRATE AND ITS USES” (SOCIETE DES PRODUITS NESTLE S.A., priority 2019, published 2022)
